Measured values taken from patent US12577206B2 (BRISTOL-MYERS SQUIBB COMPANY, priority 2020, dated 2026).

Key:
[1] = target: T1, human FPR2 (Homo sapiens, UniProt P25090); assay: FPR2 cyclic adenosine monophosphate (cAMP) assay; assay type: cell-based; conditions: CHO cells overexpressing human FPR2; forskolin 5 μM; inhibition of cAMP production; HTRF; read-out: hFPR2 cAMP2 EC50
T1 sequence (P25090 1-351): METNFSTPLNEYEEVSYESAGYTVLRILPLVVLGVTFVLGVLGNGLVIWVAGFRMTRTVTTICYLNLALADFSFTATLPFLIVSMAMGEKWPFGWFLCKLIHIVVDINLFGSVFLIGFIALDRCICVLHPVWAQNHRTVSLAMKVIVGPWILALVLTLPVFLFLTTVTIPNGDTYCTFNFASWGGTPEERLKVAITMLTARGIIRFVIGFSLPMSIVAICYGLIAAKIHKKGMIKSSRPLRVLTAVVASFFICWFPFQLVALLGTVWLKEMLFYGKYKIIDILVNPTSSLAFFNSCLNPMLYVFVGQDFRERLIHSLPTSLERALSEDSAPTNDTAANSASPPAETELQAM
Outline: (§1)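 CHO/hFPR1 4,000 cells/well, forskolin 10 μM final; CHO/hFPR2 2,000 cells/well, forskolin 5 μM final. IBMX 200 μM, DMSO 1%, DPBS + Ca/Mg + 0.1% BSA, 30 min rt. HTRF cAMP; 4-PL fit.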

[2] = target: T2, human FPR1 (Homo sapiens, UniProt P21462); assay: FPR1 cyclic adenosine monophosphate (cAMP) assay; assay type: cell-based; conditions: CHO cells overexpressing human FPR1; forskolin 10 μM; inhibition of cAMP production; HTRF; read-out: hFPR1 cAMP2 EC50
T2 sequence (P21462 1-350): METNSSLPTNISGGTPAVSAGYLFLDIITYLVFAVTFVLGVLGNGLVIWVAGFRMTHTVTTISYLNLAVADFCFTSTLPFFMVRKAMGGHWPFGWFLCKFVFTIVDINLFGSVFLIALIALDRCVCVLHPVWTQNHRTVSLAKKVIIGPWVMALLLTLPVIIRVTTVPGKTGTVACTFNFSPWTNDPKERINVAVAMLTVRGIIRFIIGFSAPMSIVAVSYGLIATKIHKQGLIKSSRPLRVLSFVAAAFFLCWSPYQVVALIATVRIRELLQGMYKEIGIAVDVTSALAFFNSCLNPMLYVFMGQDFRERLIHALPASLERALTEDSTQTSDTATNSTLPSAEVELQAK
Outline: as §1

Row | SMILES | EC50 [1] | EC50 [2]
1 | COc1cc(F)c(-c2c(NC(=O)c3ccc(OC(F)F)cc3)c(=O)n(-c3nc(NC[C@H](C)O)ccc3C(F)(F)F)n2C)c(F)c1 [Example 272, N-[5-(2,6-difluoro-4-methoxyphenyl)-2-(6-{[(2S)-2-hydroxypropyl]amino}-3-(trifluoromethyl)pyridin-2-yl)-1-methyl-3-oxo-2,3-dihydro-1H-pyrazol-4-yl]-4-(difluoromethoxy)benzamide] | 1 nM | > 10000 nM
2 | COc1cc(F)c(-c2c(NC(=O)c3ccc(OC(F)F)cc3)c(=O)n(-c3nc(NC[C@@H](C)O)ccc3C(F)(F)F)n2C)c(F)c1 [Example 273] | 3 nM | > 5000 nM
3 | COc1cc(F)c(-c2c(NC(=O)c3ccc(OC(F)F)cc3)c(=O)n(-c3nc(NC[C@H](O)C(F)(F)F)ccc3C(F)(F)F)n2C)c(F)c1 [Example 274, N-[5-(2,6-difluoro-4-methoxyphenyl)-1-methyl-3-oxo-2-(6-{[(2S)-3,3,3-trifluoro-2-hydroxypropyl]amino}-3-(trifluoromethyl)pyridin-2-yl)-2,3-dihydro-1H-pyrazol-4-yl]-4-(difluoromethoxy)benzamide] | 2 nM | > 5000 nM
4 | COc1cc(F)c(-c2c(NC(=O)c3ccc(OC(F)F)cc3)c(=O)n(-c3nc(C(C)(C)O)ccc3C(F)(F)F)n2C)c(F)c1 [Example 275, N-[5-(2,6-difluoro-4-methoxyphenyl)-2-[6-(2-hydroxypropan-2-yl)-3-(trifluoromethyl)pyridin-2-yl]-1-methyl-3-oxo-2,3-dihydro-1H-pyrazol-4-yl]-4-(difluoromethoxy)benzamide] | 5 nM | > 10000 nM
5 | COc1cc(F)c(-c2c(NC(=O)c3ccc(OC(F)F)cc3)c(=O)n(-c3nc(C(C)(C)O)ccc3Cl)n2C)c(F)c1 [Example 276, N-{2-[3-chloro-6-(2-hydroxypropan-2-yl)pyridin-2-yl]-5-(2,6-difluoro-4-methoxyphenyl)-1-methyl-3-oxo-2,3-dihydro-1H-pyrazol-4-yl}-4-(difluoromethoxy)benzamide] | 4 nM | 2890 nM
6 | Cn1c(-c2ccc(C3CC3)cc2)c(NC(=O)c2ccc(OC(F)F)cc2)c(=O)n1-c1ncccc1C(F)(F)F [Example 277, N-[5-(4-cyclopropylphenyl)-1-methyl-3-oxo-2-[3-(trifluoromethyl)pyridin-2-yl]-2,3-dihydro-1H-pyrazol-4-yl]-4-(difluoromethoxy)benzamide] | 17 nM | 730 nM
7 | COCCOc1ccc(C(F)(F)F)c(-n2c(=O)c(NC(=O)c3ccc(OC(F)F)cc3)c(-c3c(F)cc(OC)cc3F)n2C)n1 [Example 278, N-[5-(2,6-difluoro-4-methoxyphenyl)-2-[6-(2-methoxyethoxy)-3-(trifluoromethyl)pyridin-2-yl]-1-methyl-3-oxo-2,3-dihydro-1H-pyrazol-4-yl]-4-(difluoromethoxy)benzamide] | 2 nM | > 10000 nM
8 | COc1cc(F)c(-c2c(NC(=O)c3ccc(OC(F)F)cc3)c(=O)n(-c3nc(NCC(C)(C)C(N)=O)ccc3C(F)(F)F)n2C)c(F)c1 [Example 279, N-(2-{6-[(2-carbamoyl-2,2-dimethylethyl)amino]-3-(trifluoromethyl)pyridin-2-yl}-5-(2,6-difluoro-4-methoxyphenyl)-1-methyl-3-oxo-2,3-dihydro-1H-pyrazol-4-yl)-4-(difluoromethoxy)benzamide] | 2 nM | > 10000 nM
9 | COc1cc(F)c(-c2c(NC(=O)c3ccc(OC(F)F)cc3)c(=O)n(-c3nc(N4CC[C@H](O)C4)ccc3C(F)(F)F)n2C)c(F)c1 [Example 280, N-[5-(2,6-difluoro-4-methoxyphenyl)-2-{6-[(3S)-3-hydroxypyrrolidin-1-yl]-3-(trifluoromethyl)pyridin-2-yl}-1-methyl-3-oxo-2,3-dihydro-1H-pyrazol-4-yl]-4-(difluoromethoxy)benzamide] | 2 nM | 2700 nM
10 | Cn1c(-c2ccc(OC(F)F)cc2)c(NC(=O)c2ccc(OC(F)F)cc2)c(=O)n1-c1ncccc1C(F)(F)F [Example 281, 4-(difluoromethoxy)-N-{5-[4-(difluoromethoxy)phenyl]-1-methyl-3-oxo-2-[3-(trifluoromethyl)pyridin-2-yl]-2,3-dihydro-1H-pyrazol-4-yl}benzamide] | 18 nM | 500 nM
11 | COc1cc(F)c(-c2c(NC(=O)c3ccc(OC(F)F)cc3)c(=O)n(-c3nc(N4CCC(C)(O)C4)ccc3C(F)(F)F)n2C)c(F)c1 (centres unmarked) [Example 282, N-[5-(2,6-difluoro-4-methoxyphenyl)-2-[6-(3-hydroxy-3-methylpyrrolidin-1-yl)-3-(trifluoromethyl)pyridin-2-yl]-1-methyl-3-oxo-2,3-dihydro-1H-pyrazol-4-yl]-4-(difluoromethoxy)benzamide] | 2 nM | 2100 nM
12 | COc1cc(F)c(-c2c(NC(=O)c3ccc(OC(F)F)cc3)c(=O)n(-c3nc(NCC4(O)CC4)ccc3C(F)(F)F)n2C)c(F)c1 [Example 283, N-[5-(2,6-difluoro-4-methoxyphenyl)-2-(6-{[(1-hydroxycyclopropyl)methyl]amino}-3-(trifluoromethyl)pyridin-2-yl)-1-methyl-3-oxo-2,3-dihydro-1H-pyrazol-4-yl]-4-(difluoromethoxy)benzamide] | 1 nM | > 10000 nM
13 | COc1cc(F)c(-c2c(NC(=O)c3ccc(OC(F)F)cc3)c(=O)n(-c3nc(N4CCC(C)(O)C4)ccc3C(F)(F)F)n2C)c(F)c1 (centres unmarked) [Example 284, N-[5-(2,6-difluoro-4-methoxyphenyl)-2-[6-(3-hydroxy-3-methylpyrrolidin-1-yl)-3-(trifluoromethyl)pyridin-2-yl]-1-methyl-3-oxo-2,3-dihydro-1H-pyrazol-4-yl]-4-(difluoromethoxy)benzamide] | 2 nM | 1800 nM

Other lines, results leading:

Row | EC50 [1] | EC50 [2] | SMILES
14 | 2 nM | > 10000 nM | COc1cc(F)c(-c2c(NC(=O)c3ccc(OC(F)F)cc3)c(=O)n(-c3nc(OCCO)ccc3C(F)(F)F)n2C)c(F)c1 [Example 285, N-[5-(2,6-difluoro-4-methoxyphenyl)-2-[6-(2-hydroxyethoxy)-3-(trifluoromethyl)pyridin-2-yl]-1-methyl-3-oxo-2,3-dihydro-1H-pyrazol-4-yl]-4-(difluoromethoxy)benzamide]
15 | 3 nM | > 5000 nM | CCOc1ccc(C(F)(F)F)c(-n2c(=O)c(NC(=O)c3ccc(OC(F)F)cc3)c(-c3c(F)cc(OC)cc3F)n2C)n1 [Example 286, N-[5-(2,6-difluoro-4-methoxyphenyl)-2-[6-ethoxy-3-(trifluoromethyl)pyridin-2-yl]-1-methyl-3-oxo-2,3-dihydro-1H-pyrazol-4-yl]-4-(difluoromethoxy)benzamide]
16 | 13 nM | > 5000 nM | COc1cc(F)c(-c2c(NC(=O)c3ccc(OC(F)F)cc3)c(=O)n(-c3nc(OCC4CC4)ccc3C(F)(F)F)n2C)c(F)c1 [Example 287, N-{2-[6-(cyclopropylmethoxy)-3-(trifluoromethyl)pyridin-2-yl]-5-(2,6-difluoro-4-methoxyphenyl)-1-methyl-3-oxo-2,3-dihydro-1H-pyrazol-4-yl}-4-(difluoromethoxy)benzamide]
17 | 1 nM | > 10000 nM | COc1cc(F)c(-c2c(NC(=O)c3ccc(OC(F)F)cc3)c(=O)n(-c3nc(OCC(C)(C)O)ccc3C(F)(F)F)n2C)c(F)c1 [Example 288, N-[5-(2,6-difluoro-4-methoxyphenyl)-2-[6-(2-hydroxy-2-methylpropoxy)-3-(trifluoromethyl)pyridin-2-yl]-1-methyl-3-oxo-2,3-dihydro-1H-pyrazol-4-yl]-4-(difluoromethoxy)benzamide]
18 | 4 nM | > 10000 nM | COC(=O)COc1ccc(C(F)(F)F)c(-n2c(=O)c(NC(=O)c3ccc(OC(F)F)cc3)c(-c3c(F)cc(OC)cc3F)n2C)n1 [Example 289, methyl 2-({6-[3-(2,6-difluoro-4-methoxyphenyl)-4-[4-(difluoromethoxy)benzamido]-2-methyl-5-oxo-2,5-dihydro-1H-pyrazol-1-yl]-5-(trifluoromethyl)pyridin-2-yl}oxy)acetate]
19 | 1 nM | > 10000 nM | COc1cc(F)c(-c2c(NC(=O)c3ccc(OC(F)F)cc3)c(=O)n(-c3nc(NCC4(CO)CCC4)ccc3C(F)(F)F)n2C)c(F)c1 [Example 290, N-[5-(2,6-difluoro-4-methoxyphenyl)-2-[6-({[1-(hydroxymethyl)cyclobutyl]-methyl}amino)-3-(trifluoromethyl)pyridin-2-yl]-1-methyl-3-oxo-2,3-dihydro-1H-pyrazol-4-yl]-4-(difluoromethoxy)benzamide]
